Tests used:
[1] = tested on: auricle edema induced by arachidonic acid; test: Inhibitory activity on auricle edema induced by arachidonic acid; type: in vivo, ddY mice; settings: mouse, oral, 1 hour after arachidonic acid
Protocol: EXPERIMENT 5: INHIBITORY ACTIVITY ON AURICLE EDEMA INDUCED BY ARACHIDONIC ACID
[…]. Dermatol. 82, p. 367, 1984. The mice were orally administered with a test drug suspended in 0 5% CMC-Na, and after one hour, 10 μl of arachidonic acid in acetone (50 mg/ml) were applied to front and back surfaces of the left auricles of each mouse. One hours later, the thicknesses of the left and right auricles were measured by means of a dial gauge, and the rate of edema of the left auricle was calculated in comparison with the right auricle (normal). Inhibitory rate of each drug-treated group against edema formation was calculated in comparison with the solvent-treated control.

[2] = tested on: lipid peroxidation (crude homogenate prepared from brain tissues of Wistar rats); test: Inhibitory activity on lipid peroxidation (anti-oxidation activity); type: biochemical; settings: rat brain homogenate, 37° C., 30 minutes; malondialdehyde, 532 nm
Protocol: EXPERIMENT 1: INHIBITORY ACTIVITY ON LIPID PEROXIDATION (ANTI-OXIDATION ACTIVITY)
The captioned activity was evaluated according to the method described by Kakihana et al., Nihon Yakurigaku Zasshi (Folia Pharmacologica Japonica), 80, p. 225, 1982. To a 1 ml of a crude homogenate prepared from brain tissues of Wistar rats, 10 μl of a solution of test drug in dimethyl sulfoxide was added, and after pre-incubation under ice-cooling for 10 minutes, the mixture was subjected to a reaction at 37° C. for 30 minutes. The reaction was stopped by adding 200 μl of 35% perchloric acid to the mixture and then the mixture was centrifuged. To a 1 ml of the supernatant obtained, 0.5 ml of 0.5% thiobarbituric acid was added and the mixture was heated under a boiling water bath for 15 minutes. The mixture was cooled to room temperature and absorbance of the mixture at 532 nm was measured. The inhibitory rate was obtained using the amount of malondialdehyde generated by the solvent-treated control, which equals to 100%, and 50% median inhibitory concentration (IC50) was calculated according to the probit method as indexes of anti-oxidation activity.

[3] = tested on: paw edema induced by carageenin; test: Inhibitory activity on paw edema induced by carageenin; type: in vivo, Wistar rats; settings: rat, oral, 10 mg/kg, 3 hours after carageenin
Protocol: EXPERIMENT 4: INHIBITORY ACTIVITY ON PAW EDEMA INDUCED BY CARAGEENIN
Wistar rats (body weight: 110-130 g) starved overnight were orally administered with a test drug suspended in 0.5% CMC-Na, and after one hour, 0.1 ml of 1% carageenin solution (picnin-A, Zushi Kagaku) was subcutaneously injected into the right hind leg paw of each rat. Three hours later, the volume of the paw was determined by means of a plethysmometer (Model 7150, Ugo Basile Co.,Ltd.) and the rate of edema was evaluated in comparison with the volume of the paw before the carageenin injection as 100%. Inhibitory rate of each drug-treated group against edema formation was calculated in comparison with the solvent-treated control.

[4] = tested on: auricle edema induced by oxazolone; test: Effect on auricle edema induced by oxazolone (delayed allergy); type: in vivo, ICR mice; settings: mouse, oral, 10 mg/kg × 2 (30 minutes before, 6 hours after), 24 hours
Protocol: EXPERIMENT 6: EFFECT ON AURICLE EDEMA INDUCED BY OXAZOLONE (DELAYED ALLERGY)
[…]. The mice were sensitized by the application of 0.1 ml of 0.5% oxazolone in ethanol to shaven abdominal skin. Five days later, inflammation was induced by applying 10 μl of 0.5% oxazolone in acetone to front and back surfaces Of the right auricle. After 24 hours, the thicknesses of the left and right auricles were measured by a dial gauge, and the rate of edema of the right auricle was calculated in comparison with the left auricle (normal). A test drug was suspended in 0.5% CMC--Na and orally administered twice to each mouse , i.e., 30 minutes before and 6 hours after the inflammation-inducing treatment. Inhibitory rate of each drug-treated group against edema was calculated in comparison with the solvent-treated control.

cyclooxygenase = target: T1, cyclooxygenase (Ovis aries, UniProt P05979); test: Inhibitory activity on cyclooxygenase; type: biochemical; settings: PGE2 generation, sheep seminal vesicle microsome, 16 μM 14C-arachidonic acid, pH 8.3
T1 construct: Sheep seminal vesicle microsome fraction (Funakoshi) was used as an enzyme sample; purchased Funakoshi; host or cells: sheep seminal vesicle microsome fraction
T1 sequence (P05979 25-600): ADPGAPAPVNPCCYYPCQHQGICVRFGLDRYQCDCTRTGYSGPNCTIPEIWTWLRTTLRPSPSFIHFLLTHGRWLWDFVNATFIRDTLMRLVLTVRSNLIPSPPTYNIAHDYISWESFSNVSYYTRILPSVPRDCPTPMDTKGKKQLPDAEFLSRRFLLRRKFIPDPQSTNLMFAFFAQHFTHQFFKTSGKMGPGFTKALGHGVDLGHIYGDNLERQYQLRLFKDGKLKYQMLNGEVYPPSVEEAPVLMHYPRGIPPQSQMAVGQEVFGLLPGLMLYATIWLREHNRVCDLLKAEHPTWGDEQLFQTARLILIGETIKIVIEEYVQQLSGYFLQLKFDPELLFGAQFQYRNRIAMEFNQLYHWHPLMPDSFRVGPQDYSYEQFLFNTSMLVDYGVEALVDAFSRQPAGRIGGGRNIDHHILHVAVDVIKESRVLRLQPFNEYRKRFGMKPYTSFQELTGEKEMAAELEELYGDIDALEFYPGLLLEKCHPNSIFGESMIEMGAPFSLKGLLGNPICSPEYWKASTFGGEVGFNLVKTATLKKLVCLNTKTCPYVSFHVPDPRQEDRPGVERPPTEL
Protocol: EXPERIMENT 3: INHIBITORY ACTIVITY ON CYCLOOXYGENASE
Sheep seminal vesicle microsome fraction (Funakoshi) was used as an enzyme sample. A solution of a test drug was mixed with a reaction solution (3 μM epinephrine, 3 mM glutathione, and the enzyme fraction in 100 mM Tris-HCI buffer, pH 8.3). The mixture was pre-incubated at 37° C. for 5 minutes, and then 16 μ M^14 C-arachidonic acid was added to the mixture, which was allowed to react for 3 minutes. After the completion of the reaction, the product was immediately extracted, dissolved in chloroform/methanol (2:1) and developed by thin-layer chromatography. Radioactivity of the prostaglandin E2 (PGE2) fraction was measured using a liquid scintillation counter. Inhibitory rate of each drug-treated group against PGE2 generation was obtained in comparison with the solvent-treated control, and IC50 was calculated according to the probit method.

granuloma formation = test: Inhibitory activity on granuloma formation (proliferative inflammation); type: in vivo, Wistar rats; settings: rat, oral, 10 mg/kg every day for 8 days
Protocol: EXPERIMENT 7: INHIBITORY ACTIVITY ON GRANULOMA FORMATION (PROLIFERATIVE INFLAMMATION)
Evaluation was carried out by using Wistar rats (120-140 g) according to the method described by Fujiyoshi et al., Nihon Yakurigaku Zasshi (Folia Pharmacologica Japonica), 87, p. 379, 1986. Back skin of the rat was lightly incised under anesthesia with pentobarbital, and filter paper discs for antibiotic assay (57 mg, 13.0.phi., Whatman) sterilized by autoclave were embedded under the skin at the both axillae. 0.1 ml of a mixture of streptomycin and penicillin G (each 1 mg/ml) was administered dropwise to the incised site and the incised skin was sutured. From the day of the disc embedment, a test drug suspended in 0.5% CMC--Na was orally administered to the rat every day for 8 days. The rat was sacrificed at the day of last administration and granuloma including the filter paper was extirpated from the circumferential tissue and dried at 110° C. overnight. The dry weight of the granuloma was measured and inhibitory rate of each drug-treated group against granulation formation was calculated in comparison with the solvent-treated control.

ddY mice = test: Acute toxicity; type: in vivo; settings: mouse, oral, 600 mg/kg, observed for 2 weeks
Excerpt: EXPERIMENT 9: ACUTE TOXICITY

5-lipoxygenase = target: T2, 5-lipoxygenase (Cavia porcellus, UniProt A0A286X958); test: Inhibitory activity on 5-lipoxygenase; type: biochemical, guinea pigs; settings: 5-HETE generation, 20 μM 14C-arachidonic acid, pH 7.4, 37° C., 10 minutes
T2 construct: crude enzyme fraction prepared from peritoneal exudated cells of guinea pigs; endogenous in cells; host or cells: guinea pig peritoneal exudate cells (induced by intraperitoneal casein), crude enzyme fraction
T2 sequence (A0A286X958 1-674): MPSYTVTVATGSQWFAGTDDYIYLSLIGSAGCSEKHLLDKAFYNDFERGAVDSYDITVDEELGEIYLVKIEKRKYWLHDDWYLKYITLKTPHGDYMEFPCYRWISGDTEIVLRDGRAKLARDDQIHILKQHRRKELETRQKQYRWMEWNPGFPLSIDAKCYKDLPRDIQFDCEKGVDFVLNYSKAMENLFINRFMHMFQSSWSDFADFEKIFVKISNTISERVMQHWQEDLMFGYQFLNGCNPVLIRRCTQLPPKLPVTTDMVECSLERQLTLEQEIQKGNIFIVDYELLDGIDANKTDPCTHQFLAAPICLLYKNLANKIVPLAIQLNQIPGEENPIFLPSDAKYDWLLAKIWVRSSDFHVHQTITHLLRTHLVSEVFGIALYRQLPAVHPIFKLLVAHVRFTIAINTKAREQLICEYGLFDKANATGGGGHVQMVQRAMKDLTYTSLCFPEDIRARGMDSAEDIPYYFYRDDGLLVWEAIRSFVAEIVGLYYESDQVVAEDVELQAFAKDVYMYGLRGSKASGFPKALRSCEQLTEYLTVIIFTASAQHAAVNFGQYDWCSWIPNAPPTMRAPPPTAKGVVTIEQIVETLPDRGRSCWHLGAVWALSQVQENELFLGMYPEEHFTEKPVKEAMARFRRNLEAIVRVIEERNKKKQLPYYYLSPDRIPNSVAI
Protocol: EXPERIMENT 2: INHIBITORY ACTIVITY ON 5-LIPOXYGENASE
5-Lipoxygenase activity was determined according to the method described by Ochi et al., J. Biol. Chem.,258, p. 5754, 1983 using a crude enzyme fraction prepared from peritoneal exudated cells of guinea pigs which were induced by intraperitoneal injection of 2% case in solution. A solution of a test drug was mixed with a reaction solution (2mM ATP, 1 mM glutathione,and the enzyme fraction in 50 mM phosphate buffer, PH 7.4) and the mixture was pre-incubated at 37° C. for 5 minutes. Calcium chloride (1 mM) and 20 μM^14 C-arachidonic acid were added to the mixture, and then the mixture was subjected to a reaction at 37° C. for 10 minutes. After the completion of the reaction, the product was immediately extracted, dissolved in chloroform/methanol (2:1), and developed by thin-layer chromatography. Radioactivity of the 5-hydroxyeicosatetraenoic acid (5-HETE) fraction was measured using a liquid scintillation counter. Inhibitory rate of each drug-treated group against 5-HETE generation was obtained in comparison with the solvent-treated control, and IC50 was calculated according to the probit method.

For O=C(O)Cn1cccc1-c1cc(-c2ccccc2)c(-c2ccccc2)o1 [Compound 114], the “Inhibition on Edema (%)” value ([1]; 30 mg/kg) was 41.9%.
In the case of CC(C)c1cc(-c2cc(-c3ccccc3)c(-c3ccccc3)o2)n(CC(=O)O)c1 [Compound 117], the IC50 [2] is reported as 4.83 µM and the “Inhibition on Edema (%)” value [3] is reported as 50.9%.
In the case of COc1ccc(-c2cc(-c3cc(C(C)C)cn3CC(=O)O)oc2-c2ccccc2)cc1 [Compound 142], the “Inhibition on Edema (%)” value [4] is reported as 62.2% and the “Inhibition on Edema (%)” value [3] is reported as 45.4%.
For COc1ccc(-c2oc(-c3cccn3CC(=O)O)cc2-c2ccccc2)cc1 [Compound 150], the IC50 (cyclooxygenase) was 82 nM.
CCc1ccc(-c2cc(-c3ccc(OC)cc3)c(-c3ccc(C)cc3)o2)n1CC(=O)O [Compound 165] gave an IC50 [2] of 2.73 µM.
With COc1ccc(-c2cc(-c3cccn3CC(=O)O)oc2-c2ccc(OC)cc2)cc1 [Compound 175] the “Inhibition on Edema (%)” value [4] was 52.1%, the IC50 (cyclooxygenase) was 69 nM and the IC50 [2] was 3.63 µM. For the same compound, the “Inhibition on Granuloma (%)” value (granuloma formation) was 32.2%, the “Inhibition on Edema (%)” value [3] was 44.1% and the “Dead Mice/Total Mice” value (ddY mice) was 1/5. The “Inhibition on Edema (%)” value ([1]; 30 mg/kg) was 50.6%.
With COc1ccc(-c2cc(-c3cccn3C(C)C(=O)O)oc2-c2ccc(OC)cc2)cc1 (stereo not drawn) [Compound 176] the “Inhibition on Edema (%)” value [4] was 56.4%, the IC50 (cyclooxygenase) was 111 nM and the IC50 [2] was 4.49 µM. For the same compound, the “Inhibition on Granuloma (%)” value (granuloma formation) was 32.4% and the “Inhibition on Edema (%)” value ([1]; 30 mg/kg) was 30.6%.
For COc1ccc(-c2cc(-c3cccn3CCC(=O)O)oc2-c2ccc(OC)cc2)cc1 [Compound 178], the IC50 [2] was 3.24 µM.
For COc1ccc(-c2oc(-c3cccn3CC(=O)O)c(C)c2-c2ccc(OC)cc2)cc1 [Compound 184], the IC50 (cyclooxygenase) was 75 nM and the IC50 [2] was 3.13 µM.
CCc1cc(-c2cc(-c3ccc(OC)cc3)c(-c3ccc(OC)cc3)o2)n(CC(=O)O)c1 [Compound 185] showed an IC50 (cyclooxygenase) of 95 nM, an IC50 (5-lipoxygenase) of 1000 nM and an IC50 [2] of 2.2 µM.
With COc1ccc(-c2cc(-c3cc(C(C)C)cn3CC(=O)O)oc2-c2ccc(OC)cc2)cc1 [Compound 188] the “Inhibition on Edema (%)” value [4] was 44.2%, the IC50 (5-lipoxygenase) was 1110 nM and the IC50 [2] was 2.41 µM. The “Inhibition on Granuloma (%)” value (granuloma formation) was 29.7%, the “Dead Mice/Total Mice” value (ddY mice) was 4/5 and the “Inhibition on Edema (%)” value ([1]; 30 mg/kg) was 55.0%.
COc1ccc(-c2cc(-c3ccc(C)n3CC(=O)O)oc2-c2ccc(OC)cc2)cc1 [Compound 192] was tested, and the IC50 (cyclooxygenase) was 57 nM, the IC50 (5-lipoxygenase) was 910 nM and the “Inhibition on Edema (%)” value [3] was 38.4%. The “Dead Mice/Total Mice” value (ddY mice) was 0/5.
For CCCc1ccc(-c2cc(-c3ccc(OC)cc3)c(-c3ccc(OC)cc3)o2)n1CC(=O)O [Compound 195], the IC50 (5-lipoxygenase) was 910 nM and the “Inhibition on Edema (%)” value ([1]; 30 mg/kg) was 43.9%.
For CCOc1ccc(-c2cc(-c3ccc(CC)n3CC(=O)O)oc2-c2ccc(OCC)cc2)cc1 [Compound 217], the IC50 [2] was 2.44 µM.
For CC(C)Cc1ccc(C(C)C(=O)O)cc1 (stereo not drawn) [Ibuprofen, reference compound], the “Inhibition on Edema (%)” value ([1]; 100 mg/kg) was 0%.
